In one test the target is Human PDE8B (Homo sapiens, UniProt O95263). In words: Phosphodiesterase Assay (SPA). Type of test: biochemical.
Test [1] concerns the target T1, human GABAA receptor (α1β2γ2) (Homo sapiens, UniProt P14867+P18507+P47870).
T1 construct: expressed in transfected cells
In words: GABA Patch Clamp Assay (agonist, antagonist, PAM modes). Type of test: cell-based. The source says: 151 GABA Patch Clamp Assay
152 Compound effects on the human GABAA recepto r (α1β2γ2), stably express ed in human embryonic
153 kidney (HEK) cells, were examined in three modes of action: agonist, antagonist and positive
154 allosteric modulation (PAM) modes. Chloride currents evoked by the activation of the GABAA
155 recepto r wer e reco rded in the whole- cell patch clamp configuration with the automated Qube384®
156 platform (Sophion Bioscience A/S, Baltorpvej, Denmark). The intracellular solution contained (in
157 mM): CsF 90, CsCl 50, MgCl2 2 EGTA 10, HEPES 10, pH adjusted to 7.2 with CsOH. The
158 extracellular solution contained (in mM): NaCl 138, KCl 5.3, CaCl2 5, MgCl2 0.49, HEPES 10,
160 osmolarity of the internal and external solutions were adjusted with sucrose to 300 mOsm and 305
162 Compounds were dissolved and initially diluted in dimethyl sulfoxide (DMSO), with a final
163 dilution in external sol ution to generate final working concent rations. The final DMSO
164 concentration in all experiments was 0.33% (v/v).
165 Cells and solutions were loaded into the Qube384 10X Qchip (10 recording wells per well, 384
166 wells per QChip). After whole-cell con figuration was achiev ed by negativ e pressure pulse, cells
167 were maintained at a holding potential of - 80 mV throughout the experiment. To avoid
168 desensitization and current rundown due to persistent activation of GABAA, a “stacked pipette”
169 approach was utilized to ensure only a brief exposure of the cells to GABA-containing solutions.
170 In this approach, the perfusion pipettes drew from two liquid sources, first from extracellular
171 solution (14 µL), and next from a GABA-containing solution (7 µL). When dispensed into the
173 extracellular solution. At the start of the experiment, a baseline GABAA cu rrent was established
174 for each well in response to activation by 40 µM GABA. Each subsequent test condition was
175 normalized ag ainst this baseline GABA cu rrent on a per w ell basis.
176 Agonist effects were measured by recording the current evoked by the test article in the absen ce
177 of GABA. Agonism (%) was calculated relative to the current produced by 40 µM GABA for
178 each well: [% Agonism = (Itest article / I 40µM GABA) * 100%].
179 Antagonist effects of test article were examined i n the presence of 40 µM GABA following a 4
180 min incubation in test article. Antagonism was calculated relative to the current produced by 40 […]
182 allosteric modulation (%) by test article was detected when current was enhanced relative to the […]
184 EC50/ IC 50 values were calculated by fitting concentration response curve data to a 4- p aram eter […]
190 determined using a four-parameter logistic fit. […]
193 response. An apparent KB value for antagonist activity was calculated using the following […]

Structures are written as SMILES. Like-named read-outs stand apart in the source and are kept apart here.

T1 sequence (P14867 28-456): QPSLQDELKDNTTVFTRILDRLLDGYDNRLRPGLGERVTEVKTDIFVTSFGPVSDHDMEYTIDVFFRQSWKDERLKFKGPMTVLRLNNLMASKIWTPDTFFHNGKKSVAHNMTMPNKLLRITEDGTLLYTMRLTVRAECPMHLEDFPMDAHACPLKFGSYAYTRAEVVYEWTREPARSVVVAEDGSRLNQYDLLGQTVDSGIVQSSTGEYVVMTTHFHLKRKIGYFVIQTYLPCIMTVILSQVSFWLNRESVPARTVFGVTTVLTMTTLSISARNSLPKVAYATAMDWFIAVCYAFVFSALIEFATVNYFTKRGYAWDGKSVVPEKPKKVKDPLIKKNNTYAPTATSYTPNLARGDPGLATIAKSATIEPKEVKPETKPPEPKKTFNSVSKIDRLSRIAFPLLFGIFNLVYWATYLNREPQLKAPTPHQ
T1 sequence (P47870 25-512 limits assumed): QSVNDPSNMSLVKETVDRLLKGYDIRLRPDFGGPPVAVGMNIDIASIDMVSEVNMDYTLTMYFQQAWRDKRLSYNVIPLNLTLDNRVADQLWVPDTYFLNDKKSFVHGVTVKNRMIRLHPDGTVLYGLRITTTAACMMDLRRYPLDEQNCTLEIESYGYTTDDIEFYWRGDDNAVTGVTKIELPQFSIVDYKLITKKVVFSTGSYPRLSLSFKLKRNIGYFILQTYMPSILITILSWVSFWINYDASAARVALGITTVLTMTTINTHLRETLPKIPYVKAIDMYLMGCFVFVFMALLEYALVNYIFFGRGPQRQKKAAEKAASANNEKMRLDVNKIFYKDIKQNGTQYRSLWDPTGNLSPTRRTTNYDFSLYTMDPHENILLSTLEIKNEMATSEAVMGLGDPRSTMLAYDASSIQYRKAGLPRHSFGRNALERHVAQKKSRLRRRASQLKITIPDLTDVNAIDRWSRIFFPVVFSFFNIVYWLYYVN
T1 sequence (P18507 40-475): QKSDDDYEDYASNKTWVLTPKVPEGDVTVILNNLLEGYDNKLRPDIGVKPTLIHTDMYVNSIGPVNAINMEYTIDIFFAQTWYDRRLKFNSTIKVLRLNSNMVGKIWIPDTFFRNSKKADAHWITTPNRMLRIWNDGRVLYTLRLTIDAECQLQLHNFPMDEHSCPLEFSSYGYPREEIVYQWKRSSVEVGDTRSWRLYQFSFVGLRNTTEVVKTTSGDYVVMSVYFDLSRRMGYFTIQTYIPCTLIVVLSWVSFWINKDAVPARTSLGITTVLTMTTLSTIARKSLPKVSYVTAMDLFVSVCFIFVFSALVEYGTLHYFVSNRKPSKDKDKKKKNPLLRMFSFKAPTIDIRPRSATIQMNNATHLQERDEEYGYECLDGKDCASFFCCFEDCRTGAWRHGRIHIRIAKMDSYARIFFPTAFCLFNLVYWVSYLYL
Sequence of Human PDE8B (O95263 whole entry): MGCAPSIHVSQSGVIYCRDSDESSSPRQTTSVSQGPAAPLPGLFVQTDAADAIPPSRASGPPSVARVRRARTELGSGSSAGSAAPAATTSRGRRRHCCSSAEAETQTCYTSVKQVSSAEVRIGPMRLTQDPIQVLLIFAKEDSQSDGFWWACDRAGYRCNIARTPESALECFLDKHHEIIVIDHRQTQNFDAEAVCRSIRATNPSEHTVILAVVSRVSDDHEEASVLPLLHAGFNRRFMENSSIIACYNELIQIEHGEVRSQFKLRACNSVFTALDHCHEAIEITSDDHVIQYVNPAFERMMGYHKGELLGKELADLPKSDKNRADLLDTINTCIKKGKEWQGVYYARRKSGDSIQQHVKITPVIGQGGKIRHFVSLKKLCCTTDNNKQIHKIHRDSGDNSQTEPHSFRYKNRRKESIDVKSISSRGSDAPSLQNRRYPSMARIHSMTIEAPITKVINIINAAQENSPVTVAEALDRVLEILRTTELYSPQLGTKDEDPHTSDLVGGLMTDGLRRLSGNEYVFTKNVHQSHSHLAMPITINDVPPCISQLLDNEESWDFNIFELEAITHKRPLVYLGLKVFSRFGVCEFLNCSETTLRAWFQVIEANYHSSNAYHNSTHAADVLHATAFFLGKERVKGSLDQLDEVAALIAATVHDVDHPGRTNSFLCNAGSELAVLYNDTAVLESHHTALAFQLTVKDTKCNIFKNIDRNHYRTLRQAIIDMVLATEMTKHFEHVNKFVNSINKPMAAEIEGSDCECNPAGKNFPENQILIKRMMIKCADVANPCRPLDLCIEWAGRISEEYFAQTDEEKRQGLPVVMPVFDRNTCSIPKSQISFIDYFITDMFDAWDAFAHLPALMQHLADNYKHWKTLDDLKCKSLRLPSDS

Regarding `CCOc1cc(C)nc(N(CCOC)S(=O)(=O)c2ccc(NCc3c(F)cncc3F)nc2OC)n1` [Compound 1], at Human PDE8B, half-maximal inhibition (IC50) was put at 9.07 µM. The EC50 (as a rule, the concentration at which the effect is half-maximal) in test [1] was > 100 µM; in test [1] (read-out: PAM EC50, GABAa, positive allosteric modulation mode) it was > 100 µM. Moreover, in test [1] (GABAa, 10μM), the “%Activation@10μM” value amounted to 0%. Further, in test [1] (GABAa, 10μM), testing at 10 µM gave an inhibition of 4%.
